Legend:
[1] = target: Sodium channel alpha subunits; brain (Types I, II, III) (Rattus norvegicus, UniProt P04775+P04774+P08104); experiment: Inhibition of [3H]batrachotoxin binding to rat brain neuronal membranes; assay type: cell membranes, Membrane
[2] = target: Sodium channel alpha subunits; brain (Types I, II, III) (Homo sapiens, UniProt P35498+Q99250+Q9NY46); experiment: Antagonism of batrachotoxin-mediated sodium ion uptake into cultured neuroblastoma cells; assay type: functional

SMILES | IC50 [1] | IC50 [2]
COC[C@H](CCOC(=O)c1ccccc1)C[C@@H](O)[C@@]12CCCC3C[C@@](OC)(CCC31C)O2 | 10 µM | 5 µM
CC12CC[C@]3(OCc4cccc(Br)c4)CC1CCC[C@@]2(CO)O3 | 10 µM | 80 µM
CO[C@]12CCC3(C)C(CCC[C@@]3([C@H](O)CCCN(C)C)O1)C2 | 130 µM | 200 µM
CO[C@]12CCC3(C)C(CCC[C@@]3([C@H](O)C[C@@H](CCOC(=O)c3ccccc3)CN(C)C)O1)C2 | 3.6 µM | 0.5 µM
CN(C)CCC[C@@H](O)[C@@]12CCCC3C[C@@](OCc4ccccc4)(CCC31C)O2 | 4.5 µM | 4 µM
CO[C@]12CCC3(C)C(CCC[C@@]3(CO)O1)C2 | 2000 µM | 1000 µM
CCCCNc1ccc(C(=O)OCCN(C)C)cc1 [TETRACAINE] | 6 µM | 
COc1ccc(C(=O)O[C@H]2CC[C@@]3(C)[C@@H]4CC[C@H]5[C@]6(O)C[C@H](O)[C@@]7(O)[C@@H](CN8C[C@@H](C)CC[C@H]8[C@@]7(C)O)[C@]6(O)C[C@@]53O[C@]24O)cc1OC [VERATRIDINE] | 22 µM | 

— ChEMBL document CHEMBL1130561, “Batrachotoxin binding site antagonists” (Bioorg Med Chem Lett, 1997)
